This note sets out measurements from patent US8637038B2, “Methods for inhibiting allograft rejection” (Rigel Pharmaceuticals, Inc., priority 2011, dated 2014).

SMILES strings stand for the structures. Like-named read-outs stand apart in the source and are kept apart here.

The test system of assay [1] is JAK1/Tyk2. Kind of assay: IFN-γ whole blood lymphocytes phospho-STAT1. In kind it is cell-based. The conditions noted are these: Lymphocyte, read-out: IFN-γ whole blood lymphocytes phospho-STAT1 EC50. Here is the method: (§1) The activity of Compound III and Compound I was assessed in a panel of cell-based assays. Compound III and Compound I are selective inhibitors of JAK1/3-dependent signaling. Data for a non-selective JAK inhibitor (Compound IV) is shown for reference. Mixed lymphocyte reactions (MLRs) were performed by incubating freshly prepared naive human peripheral blood lymphocytes from one donor with CD80+/CD86+ mature Dendritic Cells derived from a different donor for 5 days. The percentage of CD3+/CD71+ (anti-CD3-APC, Clone HIT3a, anti-CD 71-FITC, Clone M-A712; BD Biosciences, San Jose, Calif.) proliferating cells was assessed by fluorescence-activated cell sorting (FACS; BD Bioscience). Interleukin-2 (IL-2)-dependent human primary T cell proliferation was assessed using CellTiter-Glo® Luminescent Cell Viability Assay (Promega, Madison, Wis.). STAT phosphorylation induced by different cytokines in human primary T cells was measured by intracellular FACS analysis (anti-pY694-STAT5 AlexaFluor488, anti-pY701-STAT1 AlexaFluor488, and anti-pY693-STAT4 AlexaFluor488; BD Biosciences). […] Interferon-γ (IFN-γ) signaling was assessed in the U937 monocytic cell line by measuring ICAM-1 surface expression by FACS (ICAM-1-APC, BD Bioscience).

For the next assay, the system named is A549 epithelial cells. Put plainly: A549 proliferation. It counts as cell-based. The following applies: Homo sapiens. Here is the method: (§2) The erythropoietin (EPO)-dependent survival of cultured human erythroid progenitor cells (CHEPs) was determined using CellTiter-Glo® Luminescent Cell Viability Assay (Promega). Human primary T cell activation was assessed by measuring IL-2 production by ELISA (R&D Systems, Minneapolis, Minn., USA) following plate-bound anti-CD3 and anti-CD28 stimulation (Anti-Human CD3; BD Biosciences; Anti-Human CD28; Immunotech; Prague, Czech Republic). The enzymatic activity of tryptase released by human cultured mast cells (CHMCs) upon stimulation with IgE was quantified by cleavage of the synthetic fluorescent peptide substrate Z-Ala-Lys-Arg-7-amino-4-methylcoumarin (MP Biomedicals, Solon, Ohio, USA) in tryptase buffer. B-cell receptor-dependent Erk phosphorylation was measured in Ramos cells by intracellular FACS (anti-pT202/pY204-ERK1/2-AlexaFluor488; BD Biosciences). Cell proliferation assays were performed using A549 epithelial cells and H1299 lung carcinoma cells using nuclear staining to measure cell numbers (4′6-diamidino-2-phenylindole, dihydrochloride (DAPI; Invitrogen, Darmstadt, Germany)).

The subject of another assay is JAK2. Kind of assay: EPO-dependent survival of cultured human erythroid progenitor cells (CHEP). It counts as cell-based. The conditions noted are these: for EC50: Homo sapiens, Erythroid progenitor cell, read-out: EPO CHEP Survival EC50. Here is the method:
as §2

A further assay concerns JAK1/2. Put plainly: IFN-γ U937 ICAM-1 surface expression. The following applies: for EC50: Homo sapiens. In kind it is cell-based. Here is the method: (§3) The activity of Compound III and Compound I was assessed in a panel of cell-based assays. Compound III and Compound I are selective inhibitors of JAK1/3-dependent signaling. Data for a non-selective JAK inhibitor (Compound IV) is shown for reference. Mixed lymphocyte reactions (MLRs) were performed by incubating freshly prepared naive human peripheral blood lymphocytes from one donor with CD80+/CD86+ mature Dendritic Cells derived from a different donor for 5 days. The percentage of CD3+/CD71+ (anti-CD3-APC, Clone HIT3a, anti-CD 71-FITC, Clone M-A712; BD Biosciences, San Jose, Calif.) proliferating cells was assessed by fluorescence-activated cell sorting (FACS; BD Bioscience). Interleukin-2 (IL-2)-dependent human primary T cell proliferation was assessed using CellTiter-Glo® Luminescent Cell Viability Assay (Promega, Madison, Wis.). STAT phosphorylation induced by different cytokines in human primary T cells was measured by intracellular FACS analysis (anti-pY694-STAT5 AlexaFluor488, anti-pY701-STAT1 AlexaFluor488, and anti-pY693-STAT4 AlexaFluor488; BD Biosciences). STAT phosphorylation induced by different cytokines was performed in whole blood after red blood cell lysis (Lyse/Fix buffer, BD Biosciences) and methanol permeabilization. Interferon-γ (IFN-γ) signaling was assessed in the U937 monocytic cell line by measuring ICAM-1 surface expression by FACS (ICAM-1-APC, BD Bioscience).

Assay [2] relates to JAK1/Tyk2. Kind of assay: IFN-γ T cell phospho-STAT1. The following applies: Homo sapiens. In kind it is cell-based. Here is the method: as §1
The subject of assay [3] is Syk, Lck, ZAP-70, VEGFR, INSR, EGFR and serine threonine kinases. Put plainly: Panel of cell-based assays against non-JAK kinase targets. As to the method:
as §2, with “Cell proliferation assays were performed using A549 epithelial cells and H1299 lung carcinoma cells using nuclear staining to measure cell numbers (4′6-diamidino-2-phenylindole, dihydrochloride (DAPI; Invitrogen, Darmstadt, Germany)).” left out
Growth factor-dependent protein phosphorylation was detected in HeLa cells by staining permeabilized cells with phospho-specific antibodies and quantified by chemiluminescence (Luminator, Wallac Multilabel Counter; Perkin Elmer). […] Human umbilical vein endothelial cells (HUVECs) were stimulated with VEGF and VEGFR2 phosphorylation was assessed by ELISA (100 ng/ml VEGF165, R&D Systems; Rabbit anti-phospho-VEGFR2 mAb, Cell Signaling Technology). […]

Another assay concerns Lck/AZP70. Put plainly: Anti-CD3/CD28 T cell IL-2 production. The following applies: Homo sapiens. It counts as cell-based. Here is the method:
as §2

A further assay concerns the target T1, EGFR (Homo sapiens, UniProt P00533).
T1 construct: Growth factor-dependent protein phosphorylation was detected in HeLa cells; endogenous in cells; host or cells: HeLa
Kind of assay: EGF HeLa phospho-EGFR. It counts as cell-based. Here is the method:
Growth factor-dependent protein phosphorylation was detected in HeLa cells by staining permeabilized cells with phospho-specific antibodies and quantified by chemiluminescence (Luminator, Wallac Multilabel Counter; Perkin Elmer). Akt phosphorylation was measured following insulin stimulation and EGFR phosphorylation was measured following EGF stimulation (Phospho-AKT, Cell signaling technology, Danvers, Mass.; 1 μM Insulin, Millipore, Billerica, Mass.; Phospho-EGFR, tyr1173, clone 53A3, Cell Signaling Technology; 200 ng/ml recombinant human EGF, PeproTech, Hamburg, Germany). Human umbilical vein endothelial cells (HUVECs) were stimulated with VEGF and VEGFR2 phosphorylation was assessed by ELISA (100 ng/ml VEGF165, R&D Systems; Rabbit anti-phospho-VEGFR2 mAb, Cell Signaling Technology).

Another assay relates to Syk. Kind of assay: IgE CHMC tryptase release. The conditions noted are these: Homo sapiens, read-out: IgE CHMC tryptase EC50. In kind it is cell-based. As to the method:
as §2

The test system of a further assay is JAK2/Tyk2. Put plainly: IL-12 T cell phospho-STAT4. It counts as cell-based, human. The following applies: for EC50: Homo sapiens, T-cell, read-out: IL-12 T cell phospho-STAT4 EC50; for inhibition of JAK2/Tyk2-dependent phosphorylation of Stat4 in response to IL-12: human primary T-cells. As to the method: as §3
For the next assay, the system named is JAK1/3. Kind of assay: IL-2-dependent human primary T cell proliferation. It counts as cell-based. Here is the method:
as §1

T1 sequence (P00533 25-1210): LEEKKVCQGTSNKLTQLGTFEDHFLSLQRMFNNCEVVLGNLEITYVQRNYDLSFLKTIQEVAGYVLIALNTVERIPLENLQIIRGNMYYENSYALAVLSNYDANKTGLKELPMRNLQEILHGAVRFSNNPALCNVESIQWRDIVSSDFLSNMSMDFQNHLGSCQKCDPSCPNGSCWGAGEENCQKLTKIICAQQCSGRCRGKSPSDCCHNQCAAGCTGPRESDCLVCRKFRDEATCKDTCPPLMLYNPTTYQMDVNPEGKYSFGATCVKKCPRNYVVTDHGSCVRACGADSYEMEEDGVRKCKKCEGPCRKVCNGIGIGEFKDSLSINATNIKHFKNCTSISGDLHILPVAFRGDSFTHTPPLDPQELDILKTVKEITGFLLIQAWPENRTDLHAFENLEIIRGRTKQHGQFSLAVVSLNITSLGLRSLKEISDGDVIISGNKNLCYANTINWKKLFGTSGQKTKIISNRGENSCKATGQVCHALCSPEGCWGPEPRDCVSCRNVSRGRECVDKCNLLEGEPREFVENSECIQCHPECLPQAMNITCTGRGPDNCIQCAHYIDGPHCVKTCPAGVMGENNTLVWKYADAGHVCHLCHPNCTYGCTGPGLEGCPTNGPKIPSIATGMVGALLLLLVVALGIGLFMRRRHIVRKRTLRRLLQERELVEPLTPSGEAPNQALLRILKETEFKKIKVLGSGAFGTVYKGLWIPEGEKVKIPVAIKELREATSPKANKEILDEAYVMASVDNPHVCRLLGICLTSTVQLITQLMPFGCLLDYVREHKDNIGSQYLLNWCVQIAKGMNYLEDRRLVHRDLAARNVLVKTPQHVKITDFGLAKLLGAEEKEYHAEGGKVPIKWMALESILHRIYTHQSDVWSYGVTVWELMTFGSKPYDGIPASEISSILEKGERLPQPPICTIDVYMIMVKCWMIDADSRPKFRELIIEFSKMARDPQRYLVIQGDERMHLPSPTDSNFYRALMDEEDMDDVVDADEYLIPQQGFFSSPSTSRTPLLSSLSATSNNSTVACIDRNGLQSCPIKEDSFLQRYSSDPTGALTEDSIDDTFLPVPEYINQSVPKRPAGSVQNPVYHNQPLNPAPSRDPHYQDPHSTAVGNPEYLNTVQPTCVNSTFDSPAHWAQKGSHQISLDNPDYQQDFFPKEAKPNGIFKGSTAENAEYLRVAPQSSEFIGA

As to `COc1cc(Nc2ncc(C)c(Nc3ccc4oc(=O)[nH]c4c3)n2)cc(C)c1F` [Compound I, 5-(2-(4-fluoro-3-methoxy-5-methylphenylamino)-5-methylpyrimidin-4-ylamino)benzo[d]oxazol-2(3H)-one], the EC50 came out at 153 ± 33 nM with JAK1/Tyk2 [1] (whole blood, JAK1/Tyk2); 1860 ± 251 nM with A549 epithelial cells (A549, upstream kinases Multiple, read-out: A549 proliferation EC50); 490 ± 246 nM in the assay with JAK2 (upstream kinase JAK2); 417 ± 211 nM in the assay on JAK1/2 (U-937, upstream kinases JAK1/2, read-out: IFN-γ U937 ICAM-1 EC50); 9 ± 7 nM in the assay with JAK1/Tyk2 [2] (upstream kinases JAK1/Tyk2, read-out: IFN-γ T cell phospho-STAT1 EC50); 2860 ± 118 nM in the assay on Lck/AZP70 (upstream kinases Lck/AZP70, read-out: Anti-CD3/CD28 T cell IL-2 production EC50). Moreover, the EC50 with Syk (upstream kinase Syk) came to 457 ± 263 nM; in the assay with JAK2/Tyk2 (upstream kinases JAK2/Tyk2), 463 nM; in the assay on JAK1/3 (upstream kinases JAK1/3, read-out: IL-2 T cell proliferation EC50) it was 21 ± 7 nM. Also, the “inhibition of JAK2-dependent CHEP differentiation and survival in response to EPO” value in the assay with JAK2 was “limited inhibition”. For the same molecule, the “inhibition of JAK1/2-dependent ICAM-1 expression in U937 cells in response to IFN-γ” value in the assay with JAK1/2 is listed as “limited inhibition”. Moreover, the “inhibition of other (non-JAK) kinase targets in cells” value in [3] is recorded as “very limited inhibition”. Besides, on EGFR, the “EGF HeLa phospho-EGFR EC50” value is “Inactive”. The “inhibition of JAK2/Tyk2-dependent phosphorylation of Stat4 in response to IL-12” value with JAK2/Tyk2 was “only weakly inhibited”.

Regarding `COc1cc(Nc2ncc(C)c(Nc3ccc4oc(=O)[nH]c4c3)n2)cc(C)c1C` [Compound III, 5-(2-(3-methoxy-4,5-dimethylphenylamino)-5-methylpyrimidin-4-ylamino)benzol[d]oxazol-2-(3H)-one], the EC50 with JAK1/Tyk2 [1] was 511 ± 279 nM; in the assay with A549 epithelial cells (A549, read-out: A549 proliferation EC50), 5420 ± 3040 nM; with JAK2, 1110 ± 339 nM; with JAK1/2 (U-937, read-out: IFN-γ U937 ICAM-1 EC50) it was 791 ± 352 nM; in the assay on JAK1/Tyk2 [2] (read-out: IFN-γ T cell phospho-STAT1 EC50) it was 7 ± 1 nM; in the assay on Lck/AZP70 (read-out: Anti-CD3/CD28 T cell IL-2 production EC50), 19700 ± 2900 nM. The figures for the EC50 in the assay with Syk, in the assay on JAK2/Tyk2 and in the assay with JAK1/3 (read-out: IL-2 T cell proliferation EC50) were 380 ± 150 nM, 1560 ± 971 nM and 30 ± 13 nM, respectively. In the assay with JAK2, the “inhibition of JAK2-dependent CHEP differentiation and survival in response to EPO” value is reported as “limited inhibition”. In the assay with JAK1/2, the “inhibition of JAK1/2-dependent ICAM-1 expression in U937 cells in response to IFN-γ” value was “limited inhibition”. Also, the “inhibition of other (non-JAK) kinase targets in cells” value in assay [3] is on record as “very limited inhibition”. The “EGF HeLa phospho-EGFR EC50” value on EGFR is reported as “Inactive”. Besides, the “inhibition of JAK2/Tyk2-dependent phosphorylation of Stat4 in response to IL-12” value in the assay on JAK2/Tyk2 was “only weakly inhibited”.
